Test system: NOX activity
Assay: Amplex Red measurement of extracellular hydrogen peroxide (NOX activity) using DMSO-differentiated HL60 cells
Assay type: cell-based, human
Conditions: Amplex red, DMSO-differentiated HL60 cells; compound concentration not stated
Experimental: Human acute myeloid leukemia cell line HL-60 was cultured in RPMI 1640 (Invitrogen) supplemented with 10% heat-inactivated calf serum, 2 mM glutamine, 100 U/mL penicillin (Sigma), and 100 μg streptomycin (Sigma) at 37° C. under a humidified atmosphere of 5% CO2. HL60 differentiation to the neutrophil phenotype was triggered by adding Me2SO (final concentration 1.25% v/v for 6 days) to the culture medium.
Extracellular hydrogen peroxide was measured using Amplex UltraRed (Molecular Probes). Cells were trypsinized (1× Trypsin-EDTA), collected by centrifugation, and resuspended in HBSS supplemented with 1% glucose. Cells were seeded into black 96-well plates at a density of 50′000 cells in 200 μl testing buffer (HBSS 1% glucose containing 0.005 U/mL horseradish peroxidase (Roche) and 50 μM Amplex Red in the presence or absence of compounds according to the invention. As a control, DPI was included at a final concentration of 10 μM The plates were placed in the fluorescent Optima Fluorescent plate reader and kept at 37° C. during 20 min Fluorescence was measured for […] with excitation and emission wavelengths of 544 nm and 590 nm respectively. NOX activities were expressed as % of the activity in control cells. Residual activity of DPI-treated cells was usually <10%.
The Table 2 below summarizes the percentage of inhibition of NOX activity as measured by Amplex red using DMSO-differentiated HL60 cells as described above: […]

SMILES | Inhibition (%) of NOX activity [%]
O=c1c2c(CN3CCOCC3)n(Cc3ccccc3)c(=O)cc2[nH]n1-c1ccccc1Cl [Compound 1, 5-benzyl-2-(2-chlorophenyl)-4-(morpholin-4-ylmethyl)-1H-pyrazolo[4,3-c]pyridine-3,6(2H,5H)-dione] | 80
CCCCc1c2c(=O)n(C)[nH]c2cc(=O)n1Cc1ccccn1 [Compound 3, 4-butyl-2-methyl-5-(pyridin-2-ylmethyl)-1H-pyrazolo[4,3-c]pyridine-3,6(2H,5H)-dione] | 84
CCCCc1c2c(=O)n(-c3ccc(OCc4ccccc4)cc3)[nH]c2cc(=O)n1Cc1ccc(Cl)cc1 [Compound 4, 2-[4-(benzyloxy)phenyl]-4-butyl-5-(4-chlorobenzyl)-1H-pyrazolo[4,3-c]pyridine-3,6(2H,5H)-dione] | 69
CCCCc1c2c(=O)n(-c3ccc(OCc4ccccc4)cc3)[nH]c2cc(=O)n1C [Compound 5, 2-[4-(benzyloxy)phenyl]-4-butyl-5-methyl-1H-pyrazolo[4,3-c]pyridine-3,6(2H,5H)-dione] | 94
CCCCc1c2c(=O)n(-c3ccc(F)cc3Cl)[nH]c2cc(=O)n1Cc1ccco1 [Compound 7, 4-butyl-2-(2-chloro-4-fluorophenyl)-5-(furan-2-ylmethyl)-1H-pyrazolo[4,3-c]pyridine-3,6(2H,5H)-dione] | 91
CCCCc1c2c(=O)n(-c3ccc(F)cc3Cl)[nH]c2cc(=O)n1CCOC [Compound 9, 4-butyl-2-(2-chloro-4-fluorophenyl)-5-(2-methoxyethyl)-1H-pyrazolo[4,3-c]pyridine-3,6(2H,5H)-dione] | 76
CCCCc1c2c(=O)n(-c3ccc(F)cc3Cl)[nH]c2cc(=O)n1CCc1ccccn1 [Compound 10, 4-butyl-2-(2-chloro-4-fluorophenyl)-5-(2-pyridin-2-ylethyl)-1H-pyrazolo[4,3-c]pyridine-3,6(2H,5H)-dione] | 78
COCCCn1c(CN(C)Cc2ccccc2)c2c(=O)n(-c3ccc(F)cc3Cl)[nH]c2cc1=O [Compound 12, 4-{[benzyl(methyl)amino]methyl}-2-(2-chloro-4-fluorophenyl)-5-(3-methoxypropyl)-1H-pyrazolo[4,3-c]pyridine-3,6(2H,5H)-dione] | 79
CCCCc1c2c(=O)n(-c3ccc(F)cc3Cl)[nH]c2cc(=O)n1Cc1ccccc1CN1CCOCC1 [Compound 14, 4-butyl-2-(2-chloro-4-fluorophenyl)-5-[2-(morpholin-4-ylmethyl)benzyl]-1H-pyrazolo[4,3-c]pyridine-3,6(2H,5H)-dione] | 86
COCc1c2c(=O)n(-c3cccc(Cl)c3)[nH]c2cc(=O)n1Cc1ccccn1 [Compound 23, 2-(3-chlorophenyl)-4-(methoxymethyl)-5-(pyridin-2-ylmethyl)-1H-pyrazolo[4,3-c]pyridine-3,6(2H,5H)-dione] | 89
Cn1[nH]c2cc(=O)n(Cc3ccccn3)c(CCCOc3ccccc3)c2c1=O [Compound 30, 2-methyl-4-(3-phenoxypropyl)-5-(pyridin-2-ylmethyl)-1H-pyrazolo [4,3-c]pyridine-3,6(2H,5H)-dione] | 92
COCCn1c(CN2CCCC2)c2c(=O)n(Cc3ccccc3)[nH]c2cc1=O [Compound 31, 2-benzyl-5-(2-methoxyethyl)-4-(pyrrolidin-1-ylmethyl)-1H-pyrazolo [4,3-c]pyridine-3,6(2H,5H)-dione] | 82
CCOCCCn1c(CN2CCCC2)c2c(=O)n(-c3ccc(F)cc3Cl)[nH]c2cc1=O [Compound 45, 2-(2-chloro-4-fluoro-phenyl)-5-(3-ethoxypropyl)-4-(pyrrolidin-1-ylmethyl)-1H-pyrazolo[4,3-c] pyridine-3,6(2H,5H)-dione] | 86
CCOCCCn1c(CN2CCCC2)c2c(=O)n(Cc3ccccc3)[nH]c2cc1=O [Compound 47, 2-benzyl-5-(3-ethoxypropyl)-4-(pyrrolidin-1-ylmethyl)-1H-pyrazolo[4,3-c]pyridine-3,6(2H,5H)-dione] | 89
Cn1[nH]c2cc(=O)n(Cc3ccc(Cl)cc3)c(CN3CCCC3)c2c1=O [Compound 52, 5-(4-chlorobenzyl)-2-methyl-4-(pyrrolidin-1-ylmethyl)-1H-pyrazolo[4,3-c]pyridine-3,6(2H,5H)-dione] | 90
CC(=O)Nc1cccc(Cn2c(CN3CCCC3)c3c(=O)n(-c4ccc(OCc5ccccc5)cc4)[nH]c3cc2=O)c1 [Compound 53, N-[3-({2-[4-(benzyloxy)phenyl]-3,6-dioxo-4-(pyrrolidin-1-ylmethyl)-1,2,3,6-tetrahydro-5H-pyrazolo[4,3-c]pyridin-5-yl}methyl)phenyl] acetamide] | 86
COCCn1c(COc2ccc(F)cc2)c2c(=O)n(-c3ccccc3Cl)[nH]c2cc1=O [Compound 58, 2-(2-chlorophenyl)-4-[(4-fluorophenoxy)methyl]-5-(2-methoxyethyl)-1H-pyrazolo[4,3-c]pyridine-3,6(2H,5H)-dione] | 80
Cn1[nH]c2cc(=O)n(Cc3ccccn3)c(COCc3ccccc3)c2c1=O [Compound 63, 4-[(benzyloxy)methyl]-2-methyl-5-(pyridin-2-ylmethyl)-1H-pyrazolo [4,3-c]pyridine-3,6 (2H,5H)-dione] | 89
Cn1[nH]c2cc(=O)n(Cc3cccc(N4CCOCC4)n3)c(COc3ccc(F)cc3)c2c1=O [Compound 65, 4-[(4-fluorophenoxy)methyl]-2-methyl-5-[(6-morpholin-4-ylpyridin-2-yl)methyl]-1H-pyrazolo[4,3-c] pyridine-3,6(2H,5H)-dione] | 80
Cn1c(C2CN(Cc3ccccc3)CCO2)c2c(=O)n(-c3ccccc3Cl)[nH]c2cc1=O (stereo not drawn) [Compound 84, 4-(4-benzylmorpholin-2-yl)-2-(2-chloro-phenyl)-5-methyl-1H-pyrazolo [4,3-c]pyridine-3,6 (2H,5H)-dione] | 78
Cn1c(COc2ccc(Cl)cc2)c2c(=O)n(-c3ccccc3Cl)[nH]c2cc1=O [Compound 92, 4-[(4-chlorophenoxy)methyl]-2-(2-chlorophenyl)-5-methyl-1H-pyrazolo[4,3-c] pyridine-3,6(2H,5H)-dione] | 76
CN(Cc1c2c(=O)n(-c3ccccc3Cl)[nH]c2cc(=O)n1CCc1ccccn1)c1ccccc1 [Compound 93, 2-(2-chlorophenyl)-4-{[methyl(phenyl)amino]methyl}-5-(2-pyri-din-2-ylethyl)-1H-pyrazolo[4,3-c] pyridine-3,6(2H,5H)-dione] | 80
CC(C)(C)OC(=O)N1CCC(Cn2c(COCc3ccccc3)c3c(=O)n(-c4ccccc4Cl)[nH]c3cc2=O)CC1 [Compound 100, tert-butyl 4-({4-[(benzyloxy)methyl]-2-(2-chlorophenyl)-3,6-dioxo-1,2,3,6-tetrahydro-5H-pyrazolo[4,3-c]pyri-din-5-yl}methyl)pipe-ridine-1-carboxylate] | 78
CCN(CC)CCCn1c(COCc2ccccc2)c2c(=O)n(-c3ccccc3Cl)[nH]c2cc1=O [Compound 102, 4-[(benzyloxy)methyl]-2-(2-chlorophenyl)-5-[3-(diethylamino)propyl]-1H-pyrazolo[4,3-c] pyridine-3,6(2H,5H)-dione] | 80
CN1CCC(Cn2c(COCc3ccccc3)c3c(=O)n(-c4ccccc4Cl)[nH]c3cc2=O)CC1 [Compound 106, 4-[(benzyloxy)methyl]-2-(2-chlorophenyl)-5-[(1-methylpiperidin-4-yl)methyl]-1H-pyrazolo [4,3-c]pyridine-3,6(2H,5H)-dione] | 81
Cn1c(COC(c2ccccc2)C(F)(F)F)c2c(=O)n(-c3ccccc3Cl)[nH]c2cc1=O (stereo not drawn) [Compound 108, 2-(2-chlorophenyl)-5-methyl-4-[(2,2,2-trifluoro-1-phenylethoxy)methyl]-1H-pyrazolo[4,3-c] pyridine-3,6(2H,5H)-dione] | 75
O=c1c2c(COCc3ccccc3)n(Cc3cnccn3)c(=O)cc2[nH]n1-c1ccccc1Cl [Compound 113, 4-[(benzyloxy)methyl]-2-(2-chlorophenyl)-5-(pyrazin-2-yl-methyl)-1H-pyrazolo[4,3-c]pyridine-3,6(2H,5H)-dione] | 87
CN(C)C(=O)Cn1c(COCc2ccccc2)c2c(=O)n(-c3ccccc3Cl)[nH]c2cc1=O [Compound 116, 2-{4-[(benzyloxy)methyl]-2-(2-chlorophenyl)-3,6-dioxo-1,2,3,6-tetrahydro-5H-pyrazolo[4,3-c]pyridin-5-yl)-N,N dimethyl acetamide] | 81
CN(CCCc1c2c(=O)n(-c3ccccc3Cl)[nH]c2cc(=O)n1C)c1ccccc1 [Compound 120, 2-(2-chlorophenyl)-5-methyl-4-{3-[methyl (phenyl)amino]propyl}-1H-pyrazolo[4,3-c] pyridine-3,6(2H,5H)-dione] | 77
Cn1c(CCCN2CCc3ccccc32)c2c(=O)n(-c3ccccc3Cl)[nH]c2cc1=O [Compound 123, 2-(2-chloro-phenyl)-4-[3-(2,3-dihydro-1H-indol-1-yl)propyl]-5-methyl-1H-pyrazolo[4,3-c] pyridine-3,6(2H,5H)-dione] | 90

Source: patent publication US8455485B2, “Pyrazolo pyridine derivatives as NADPH oxidase inhibitors” (Genkyotex SA, priority 2008, dated 2013)
